The test system of one experiment is MiaPaCa2 cells. Briefly: cell-based HT lactate assay, colorimetric/fluorometric detection (inhibition of lactate production). Particulars: class symbols, 0 to 3 pluses.
In a further experiment the target is Human LDHA (Homo sapiens (Human), UniProt P00338). Briefly: human LDHA primary biochemical assay (resazurin/diaphorase coupled, fluorescence). The following applies: LDHA inhibitory activity, activity level based on IC50 (Table 7). An excerpt: Test compounds were placed in a Greiner Bio-One (Monroe, N.C.) 1536-well black solid bottom assay plate. 200 millimolar (mM) Tris HCl, pH 7.4, 100 micromolar […] EDTA and 0.01% TWEEN-20™, final concentration, was used as the assay buffer. The LDHA reagent was 2 nanomolar (nM) Human LDHA (Meridian Life Science, Inc., Memphis, Tenn.), final concentration, in assay buffer.
(In general: Alamar Blue is a resazurin reagent that responds to reducing activity.)

Here are results for 27 compounds from patent publication US10961200B2, “Small molecule inhibitors of lactate dehydrogenase and methods of use thereof” (THE UNITED STATES OF AMERICA, AS REPRESENTED BY THE …, priority 2014, dated 2021).

A word on the IC50: it is the midpoint of a concentration-inhibition curve.

The structures appear in SMILES notation. Some results are limits rather than exact numbers.

As for `NS(=O)(=O)c1ccc(Cc2c(-c3ccc(F)c(C#CCC4CC4)c3)nn(-c3nc(C(=O)O)cs3)c2CC2CC2)cc1F` [Compound 437], the half-maximal inhibitory concentration (IC50) in the experiment on MiaPaCa2 cells was under 1 µM; on Human LDHA, under 0.1 µM.
For the compound `N[S+](=O)([O-])c1cccc(Cc2c(-c3ccc(F)c(C#CC4CCCC4)c3)nn(-c3nc(C(=O)O)cs3)c2CC2CC2)c1` [Compound 438], the IC50 in the experiment on MiaPaCa2 cells is 1 to 10 µM; at Human LDHA, 0.1 to 1 µM.
As for `NS(=O)(=O)c1ccc(Cc2c(-c3ccc(F)c(C#CC(F)F)c3)nn(-c3nc(C(=O)O)cs3)c2CC2CC2)cc1F` [Compound 440], the figures for the IC50 in the experiment with MiaPaCa2 cells and against Human LDHA were 1 to 10 µM and under 0.1 µM, respectively.
`N#CC#Cc1cc(-c2nn(-c3nc(C(=O)O)cs3)c(CC3CC3)c2Cc2ccc(S(N)(=O)=O)c(F)c2)ccc1F` [Compound 442]: the values for the 50% inhibitory concentration (IC50) in the experiment on MiaPaCa2 cells and against Human LDHA were 1 to 10 µM and under 0.1 µM, respectively.
As to `CC(F)C#Cc1cc(-c2nn(-c3nc(C(=O)O)cs3)c(CC3CC3)c2Cc2ccc([S+](N)(=O)[O-])c(F)c2)ccc1F` (stereo not drawn) [Compound 443], the IC50 with MiaPaCa2 cells (Homo sapiens, MIA PaCa-2) was under 1 µM; on Human LDHA it was under 0.1 µM.
On to `NS(=O)(=O)c1ccc(Cc2c(-c3ccc(F)c(C4=CCCC4)c3)nn(-c3nc(C(=O)O)cs3)c2CC2CC2)cc1F` [Compound 444], for which the IC50 is under 1 µM with MiaPaCa2 cells and under 0.1 µM against Human LDHA.
Take `CC(C)C#Cc1cc(-c2nn(-c3nc(C(=O)O)cs3)c(CC3CC3)c2Cc2ccc([S+](N)(=O)[O-])c(F)c2)ccc1F` [Compound 445]: the IC50 with MiaPaCa2 cells was under 1 µM; against Human LDHA it was under 0.1 µM.
Taken in the same sequence, the figures for `NS(=O)(=O)c1ccc(Cc2c(-c3ccc(F)c(C#CC4CCC4)c3)nn(-c3nc(C(=O)O)cs3)c2CC2CC2)cc1F` [Compound 446] were under 1 µM and under 0.1 µM.
Regarding `NS(=O)(=O)c1ccc(Cc2cn(-c3nc(C(=O)O)cs3)nc2-c2ccc(F)c(-c3cccc(F)c3)c2)cc1` [Compound 458, 2-(3-(3′,6-difluoro-[1,1′-biphenyl]-3-yl)-4-(4-sulfamoylbenzyl)-1H-pyrazol-1-yl)thiazole-4-carboxylic acid], the IC50 with MiaPaCa2 cells (Homo sapiens, MIA PaCa-2) was 1 to 10 µM; against Human LDHA, under 0.1 µM.
Turning to `Cc1ccc(-c2nn(-c3nc(C(=O)O)cs3)c(CC3CC3)c2Cc2ccc(S(N)(=O)=O)cc2)cc1OC1CCCC1` [Compound 467, 2-(3-(3-(cyclopentyloxy)-4-methylphenyl)-5-(cyclopropylmethyl)-4-(4-sulfamoylbenzyl)-1H-pyrazol-1-yl)thiazole-4-carboxylic acid], the IC50 was under 1 µM in the experiment on MiaPaCa2 cells (Homo sapiens, MIA PaCa-2) and under 0.1 µM on Human LDHA.
For the compound `NS(=O)(=O)c1ccc(Cc2c(-c3cc(OC4CCCC4)ccc3F)nn(-c3nc(C(=O)O)cs3)c2CC2CC2)cc1` [Compound 468, 2-(3-(5-(cyclopentyloxy)-2-fluorophenyl)-5-(cyclopropylmethyl)-4-(4-sulfamoylbenzyl)-1H-pyrazol-1-yl)thiazole-4-carboxylic acid], the IC50 with MiaPaCa2 cells (Homo sapiens, MIA PaCa-2) is 1 to 10 µM; on Human LDHA, 0.1 to 1 µM.
Regarding `NS(=O)(=O)c1ccc(Cc2c(-c3ccc(F)c(OCC4CCCO4)c3)nn(-c3nc(C(=O)O)cs3)c2CC2CC2)cc1F` (stereo not drawn) [Compound 469, 2-(5-(cyclopropylmethyl)-3-(4-fluoro-3-((tetrahydrofuran-2-yl)methoxy)phenyl)-4-(3-fluoro-4-sulfamoylbenzyl)-1H-pyrazol-1-yl)thiazole-4-carboxylic acid], the concentration for half-maximal inhibition (IC50) is 1 to 10 µM in the experiment on MiaPaCa2 cells (Homo sapiens, MIA PaCa-2) and under 0.1 µM against Human LDHA.
As for `NS(=O)(=O)c1ccc(Cc2c(-c3ccc(F)c(OCC4CCOC4)c3)nn(-c3nc(C(=O)O)cs3)c2CC2CC2)cc1F` (stereo not drawn) [Compound 470, 2-(5-(cyclopropylmethyl)-3-(4-fluoro-3-((tetrahydrofuran-3-yl)methoxy)phenyl)-4-(3-fluoro-4-sulfamoylbenzyl)-1H-pyrazol-1-yl)thiazole-4-carboxylic acid], the half-inhibitory concentration (IC50) with MiaPaCa2 cells (Homo sapiens, MIA PaCa-2) was 1 to 10 µM; against Human LDHA, under 0.1 µM.
Regarding `NS(=O)(=O)c1ccc(Cc2c(-c3ccc(F)c(OCc4ccc(C(F)(F)F)o4)c3)nn(-c3nc(C(=O)O)cs3)c2CC2CC2)cc1F` [Compound 473, 2-(5-(cyclopropylmethyl)-3-(4-fluoro-3-((5-(trifluoromethyl)furan-2-yl)methoxy)phenyl)-4-(3-fluoro-4-sulfamoylbenzyl)-1H-pyrazol-1-yl)thiazole-4-carboxylic Acid], the IC50 with MiaPaCa2 cells (Homo sapiens, MIA PaCa-2) was under 1 µM; against Human LDHA, under 0.1 µM.
As for `COc1cccc(-c2cc(F)cc(-c3nn(-c4nc(C(=O)O)cs4)c(CC4CC4)c3Cc3ccc(S(N)(=O)=O)cc3)c2)c1` [Compound 478, 2-(5-(cyclopropylmethyl)-3-(5-fluoro-3′-methoxy-[1,1′-biphenyl]-3-yl)-4-(4-sulfamoylbenzyl)-1H-pyrazol-1-yl)thiazole-4-carboxylic Acid], the IC50 in the experiment with MiaPaCa2 cells (Homo sapiens, MIA PaCa-2) is 1 to 10 µM; against Human LDHA, under 0.1 µM.
For the compound `NS(=O)(=O)c1ccc(Cc2c(-c3cc(F)cc(-c4ccc(F)cc4)c3)nn(-c3nc(C(=O)O)cs3)c2CC2CC2)cc1` [Compound 479, 2-(5-(cyclopropylmethyl)-3-(4′,5-difluoro-[1,1′-biphenyl]-3-yl)-4-(4-sulfamoylbenzyl)-1H-pyrazol-1-yl)thiazole-4-carboxylic Acid], the IC50 with MiaPaCa2 cells (Homo sapiens, MIA PaCa-2) was under 1 µM; on Human LDHA, under 0.1 µM.
For `NS(=O)(=O)c1ccc(Cc2c(-c3ccc(F)c(OCc4ccccc4)c3)nn(-c3nc(C(=O)O)cs3)c2CC2CC2)cc1` [Compound 480, 2-(3-(3-(benzyloxy)-4-fluorophenyl)-5-(cyclopropylmethyl)-4-(4-sulfamoylbenzyl)-1H-pyrazol-1-yl)thiazole-4-carboxylic Acid], in that order: under 1 µM and under 0.1 µM.
`NS(=O)(=O)c1ccc(Cc2c(-c3cccc(Oc4ccc(C(F)(F)F)cc4)c3)nn(-c3nc(C(=O)O)cs3)c2CC2CC2)cc1` [Compound 481, 2-(5-(cyclopropylmethyl)-4-(4-sulfamoylbenzyl)-3-(3-(4-(trifluoromethyl)phenoxy)-phenyl)-1H-pyrazol-1-yl)thiazole-4-carboxylic Acid]: the IC50 in the experiment on MiaPaCa2 cells (Homo sapiens, MIA PaCa-2) was 1 to 10 µM; against Human LDHA, under 0.1 µM.
For `NS(=O)(=O)c1ccc(Cc2c(-c3cccc(OCc4ccccc4)c3)nn(-c3nc(C(=O)O)cs3)c2C2CC2)cc1` [Compound 501, 2-(3-(3-(benzyloxy)phenyl)-5-cyclopropyl-4-(4-sulfamoylbenzyl)-1H-pyrazol-1-yl)thiazole-4-carboxylic acid], the concentration for half-maximal inhibition (IC50) with MiaPaCa2 cells (Homo sapiens, MIA PaCa-2) is 1 to 10 µM; against Human LDHA, under 0.1 µM.
For `NS(=O)(=O)c1ccc(Cc2c(-c3cccc(Oc4ccccc4)c3)nn(-c3nc(C(=O)O)cs3)c2C2CC2)cc1` [Compound 502, 2-(5-cyclopropyl-3-(3-phenoxyphenyl)-4-(4-sulfamoylbenzyl)-1H-pyrazol-1-yl)thiazole-4-carboxylic acid], in that order: 1 to 10 µM and under 0.1 µM.
For the compound `NS(=O)(=O)c1ccc(Cc2c(-c3cccc(Oc4ccccc4)c3)nn(-c3nc(C(=O)O)cs3)c2CC2CC2)cc1` [Compound 503, 2-(5-(cyclopropylmethyl)-3-(3-phenoxyphenyl)-4-(4-sulfamoylbenzyl)-1H-pyrazol-1-yl)thiazole-4-carboxylic Acid], the 50% inhibitory concentration (IC50) with MiaPaCa2 cells (Homo sapiens, MIA PaCa-2) was 1 to 10 µM; against Human LDHA, under 0.1 µM.
Turning to `Cc1cc(-c2cccc(F)c2)cc(-c2nn(-c3nc(C(=O)O)cs3)c(CC3CC3)c2Cc2ccc(S(N)(=O)=O)cc2)c1` [Compound 505, 2-(5-(cyclopropylmethyl)-3-(3′-fluoro-5-methyl-[1,1′-biphenyl]-3-yl)-4-(4-sulfamoylbenzyl)-1H-pyrazol-1-yl)thiazole-4-carboxylic Acid], the half-inhibitory concentration (IC50) in the experiment with MiaPaCa2 cells (Homo sapiens, MIA PaCa-2) was 1 to 10 µM; at Human LDHA, under 0.1 µM.
With `Cc1cc(-c2ccc(F)cc2)cc(-c2nn(-c3nc(C(=O)O)cs3)c(CC3CC3)c2Cc2ccc(S(N)(=O)=O)cc2)c1` [Compound 506, 2-(5-(cyclopropylmethyl)-3-(4′-fluoro-5-methyl-[1,1′-biphenyl]-3-yl)-4-(4-sulfamoylbenzyl)-1H-pyrazol-1-yl)thiazole-4-carboxylic Acid], the 50% inhibitory concentration (IC50) in the experiment with MiaPaCa2 cells (Homo sapiens, MIA PaCa-2) is 1 to 10 µM; against Human LDHA, under 0.1 µM.
In the case of `NS(=O)(=O)c1ccc(Cc2c(-c3cccc(Oc4ccc(F)cc4)c3)nn(-c3nc(C(=O)O)cs3)c2CC2CC2)cc1` [Compound 507, 2-(5-(cyclopropylmethyl)-3-(3-(4-fluorophenoxy)phenyl)-4-(4-sulfamoylbenzyl)-1H-pyrazol-1-yl)thiazole-4-carboxylic Acid], the IC50 in the experiment on MiaPaCa2 cells (Homo sapiens, MIA PaCa-2) was 1 to 10 µM; against Human LDHA it was under 0.1 µM.
As for `NS(=O)(=O)c1ccc(Cc2c(-c3ccc(F)c(Oc4ccccc4)c3)nn(-c3nc(C(=O)O)cs3)c2CC2CC2)cc1` [Compound 508, 2-(5-(cyclopropylmethyl)-3-(4-fluoro-3-phenoxyphenyl)-4-(4-sulfamoylbenzyl)-1H-pyrazol-1-yl)thiazole-4-carboxylic Acid], the IC50 in the experiment on MiaPaCa2 cells (Homo sapiens, MIA PaCa-2) is 1 to 10 µM; on Human LDHA, under 0.1 µM.
In the case of `NS(=O)(=O)c1ccc(Cc2c(-c3ccc(F)c(Oc4cccc(F)c4)c3)nn(-c3nc(C(=O)O)cs3)c2CC2CC2)cc1F` [Compound 509, 2-(5-(cyclopropylmethyl)-3-(4-fluoro-3-(3-fluorophenoxy)phenyl)-4-(3-fluoro-4-sulfamoylbenzyl)-1H-pyrazol-1-yl)thiazole-4-carboxylic Acid], the IC50 is under 1 µM with MiaPaCa2 cells (Homo sapiens, MIA PaCa-2) and under 0.1 µM against Human LDHA.
Taken in the same sequence, the figures for `Cc1ccc(Oc2cc(-c3nn(-c4nc(C(=O)O)cs4)c(CC4CC4)c3Cc3ccc(S(N)(=O)=O)c(F)c3)ccc2F)cc1` [Compound 510, 2-(5-(cyclopropylmethyl)-3-(4-fluoro-3-(p-tolyloxy)phenyl)-4-(3-fluoro-4-sulfamoylbenzyl)-1H-pyrazol-1-yl)thiazole-4-carboxylic Acid] were under 1 µM and under 0.1 µM.
